Test results published in paper PMC6651024, “LIR Motif-Containing Hyperdisulfide β-Ginkgotide is Cytoprotective, Adaptogenic, and Scaffold-Ready” (Molecules, 2019).
Like-named read-outs stand apart in the source and are kept apart here. Where a SMILES comes first, the peptide text is derived from it.

What was measured:
[1] = Thermal stability by far-UV circular dichroism spectroscopy; type: physicochemical; conditions: heating up to 90 °C (20, 55, 90 °C); 42 µM peptide in sodium phosphate buffer pH 7.5; 190-260 nm
Protocol: The secondary structure and thermal stability of the synthetic β-gB1 were assessed using circular dichroism (CD) spectroscopy. The far-UV CD data of β-gB1 were acquired at 20 °C, and secondary structure composition was predicted using the CDSSTR algorithm with a normalized root mean square deviation (RMSD) value of 0.021. The CD spectroscopy spectra agreed with the predicted secondary structure of folded β-gB1, which consists 28% strands, 16% turns, 1% helices, and 55% unordered structures (Figure 1A). The spectrum is in strike contrast with that of the S-reduced β-gB1, which is devoid of a secondary structure (Figure 1A).
Far-UV CD spectra were recorded for the synthetic and folded β-ginkgotide β-gB1 (42 µM) in a sodium phosphate buffer (pH 7.5) on a Chirascan™ CD spectrometer (Applied Photophysics, Leatherhead, UK) equipped with a temperature controller. Spectra were acquired between 190 and 260 nm from 20 to 90 °C using a 1 mm path-length quartz cuvette, a 1 nm spectral bandwidth, and a 1 nm step size. CD spectroscopy data were analyzed for secondary structure content using CDSSTR [23]. CD data were expressed as mean residue ellipticity (in deg cm^2dmol^−1).

caspase-9 = assay: Western blot of caspase-9 in SH-SY5Y cells; type: cell-based, human; conditions: triplicates
Protocol: In contrast, the β-gB1-treated cells increased the expression of the LC3B-II isoform by 2.8-fold. […] In addition, the β-gB1-treated cells increased the BECN1 expression by 1.5-fold (Figure 2A,B).
(§1) Rat cardio-myoblast cells (H9c2) and […] neuron-like SH-SY5Y cells were purchased from ATCC and maintained in DMEM (Dulbecco’s modified eagle medium) medium supplemented with 10% fetal bovine serum (FBS), 10,000 U/mL of penicillin, and 10,000 µg/mL of streptomycin at 37 °C, 5% CO2.
A 25 µg equivalent quantity of each protein samples were resolved on a 10% and 15% SDS-PAGE gel accordingly and transferred onto a nitrocellulose membrane. Immunoblotting was performed using anti-protein antibodies against glyceraldehyde 3-phosphate dehydrogenase (GAPDH) (1:5000), LC3B (1:1500), Beclin-1 (1:1500), Caspase-3 (1:1500), and Caspase-9 (1:1500). Blots were developed with Clarity Max Western ECL blotting substrates. Protein bands were quantitated densitometrically using ImageJ software (ImageJ15.0b, Wayen Rasband, NIH, Bethesda, Maryland, USA), expressed relative to GAPDH, and normalized to the vehicle control cells. Statistical calculations and bar graphs were done using GraphPad Prism software (Version 6.01), and three individual experimental data sets were used for the calculation. Data are presented as means ± SD and compared by the Holm–Sidak multiple t-tests method. […]

H9c2 cells = type: cell-based, rat; conditions: 48 h hypoxia, MTT
Protocol: (§2) Autophagy is an integrated stress response that clears the subcellular damages. Previous studies have shown that such damages can be induced by hypoxia and hypoxia-reoxygenation stress. Clearing subcellular damages would increase survivability. In traditional medicine, G. biloba is used as an herbal remedy for acute ischemic stroke and post-stroke recovery. To examine the effects of β-gB1 in hypoxia stress, we used cardio-myoblast H9c2 and SH-SY5Y cells. Cells were cultured with or without β-gB1 and incubated in a hypoxic environment for 48 h before the assessment of cell survival by the MTT assay. […] Importantly, when the concentration of β-gB1 was reduced tenfold from 10 to 1 µM, a 22–24% increase of survivability was still observed in H9c2 and SH-SY5Y cells (Figure 3A–D). […]
(§3) Cells were cultured in DMEM with or without β-gB1/S-alkylated β-gB1 (β-gB1Alk) for 48 h under normoxia, hypoxia, and hypoxia-reoxygenation conditions. […] The culture medium was then aspirated, and purple formazan crystals were dissolved in DMSO for colorimetric quantification at 570 nm using a microplate reader with a reference wavelength of 630 nm. […]

SH-SY5Y cells [2] = type: cell-based, mouse; conditions: 48 h hypoxia, MTT
Protocol: as §2, §3

SH-SY5Y cells [3] = assay: LDH release cytotoxicity assay, SH-SY5Y; type: cell-based, mouse; conditions: 10 µM peptide, 48 h, 37 °C, LDH kit, 450 nm, triplicates
Excerpt: In addition, β-gB1 is non-toxic to Vero and BHK (baby hamster kidney) cell lines based on an MTT assay. […] LDH is a cytoplasmic enzyme which is rapidly released into the cell culture medium upon plasma membrane damage and is widely used as a marker for cytotoxicity. Thus, an LDH-release assay measures the level of plasma membrane damage to a cell population.
as §1
An LDH release assay was performed using the CytoSelect™ LDH cytotoxicity assay kit (CBA-241, Cell Biolabs, Inc., San Diego, CA, USA). In brief, cells were cultured in DMEM with or without 10 µM of β-gB1 and S-alkylated β-gB1 (β-gB1Alk) for 48 h at 37 °C and 5% CO2. PBS was used for the vehicle control experiment. The culture medium was transferred and mixed with the LDH assay reagent in a ratio of 9:1. The reaction mixture was incubated at 37 °C for 2 h, and colorimetric quantification was performed using a 450 nm wavelength. The assay was performed in experimental triplicates, and statistical calculations and bar graphs were done using GraphPad Prism software (Version 6.01). […]

[4] = tested on: BHK (baby hamster kidney) cell line; conditions: MTT assay; cited from earlier work
Excerpt: (§4) In addition, β-gB1 is non-toxic to Vero and BHK (baby hamster kidney) cell lines based on an MTT assay. […] LDH is a cytoplasmic enzyme which is rapidly released int ...

Vero cell line = conditions: MTT assay; cited from earlier work
Excerpt: as §4

CC[C@H](C)[C@@H]1NC(=O)[C@@H]2CSSC[C@H](NC(=O)CNC(=O)[C@@H](NC(=O)[C@H](CCC(=O)O)NC(=O)[C@@H](N)Cc3ccc(O)cc3)[C@@H](C)O)C(=O)N[C@@H](CCCCN)C(=O)N[C@@H](CCCNC(=N)N)C(=O)N[C@H]3CSSC[C@@H](C(=O)O)NC(=O)[C@H](CSSC[C@H](NC3=O)C(=O)N[C@@H](Cc3ccc(O)cc3)C(=O)N[C@@H](CC(C)C)C(=O)N[C@@H](CC(=O)O)C(=O)N[C@@H](CCC(=O)O)C(=O)N[C@@H](Cc3ccc(O)cc3)C(=O)NCC(=O)N2)NC(=O)[C@H](CCCNC(=N)N)NC1=O [β-gB1] (HELM PEPTIDE1{Y.E.T.G.C.K.R.C.C.Y.L.D.E.Y.G.C.I.R.C.C}$PEPTIDE1,PEPTIDE1,5:R3-16:R3|PEPTIDE1,PEPTIDE1,8:R3-20:R3|PEPTIDE1,PEPTIDE1,9:R3-19:R3$$$V2.0; N-terminus and C-terminus assumed)
Effect of heating on far-UV CD spectrum (thermal denaturation) [1]: did not alter its CD spectrum | Expression of caspase-9 in treated cells (caspase-9): remained unchanged | Increase of cell survivability under hypoxia (H9c2 cells; H9c2, 1 µM peptide, range printed jointly for H9c2 and SH-SY5Y): 22–24% | Increase of cell survivability under hypoxia (H9c2 cells; H9c2, 10 µM peptide, triplicates): 37% | Increase of cell survivability under hypoxia (SH-SY5Y cells [2]; 1 µM peptide, range printed jointly for H9c2 and SH-SY5Y): 22–24% | Cytoprotective effect under hypoxia (in words) (SH-SY5Y cells [2]; 10 µM peptide, compared with 37% in H9c2): comparable cytoprotective effect | Cytotoxicity / cell-membrane damage by LDH release (SH-SY5Y cells [3]): no significant cytotoxicity or cell-membrane damaging effects | Toxicity to cell line [4]: non-toxic | Toxicity to cell line (Vero cell line): non-toxic
